From ChEMBL document CHEMBL1938307, “Synthesis, pharmacological evaluation and docking studies of N-(benzo[d]thiazol-2-yl)-2-(piperazin-1-yl)acetamide analogs as COX-2 inhibitors” (Bioorg Med Chem Lett, 2012)

Experiments:
Rattus norvegicus [1] = assay: Antiinflammatory activity in Wistar rat assessed as inhibition of carrageenan-induced paw edema at 30 mg/kg after 2 hrs; format: functional
Rattus norvegicus [2] = assay: Ulcerogenic effect in Wistar rat assessed as gastric bleeding at 90 mg/kg after 6 hrs; format: toxicity, organism-based, Stomach; parameters: dose 90 mg/kg; conditions: in vivo
Rattus norvegicus [3] = assay: Ulcerogenic effect in Wistar rat assessed as lesions in stomach area at 90 mg/kg after 6 hrs; format: toxicity, organism-based; parameters: dose 90 mg/kg; conditions: in vivo

COc1ccc2sc(NC(=O)CN3CCNCC3)nc2c1
inhibition in vivo at 30 mg/kg (Rattus norvegicus [1]): 2.17%

CCN1CCN(CC(=O)Nc2nc3ccccc3s2)CC1
inhibition in vivo at 30 mg/kg (Rattus norvegicus [1]): 13%

COc1ccc2sc(NC(=O)CN3CCCNCC3)nc2c1
inhibition in vivo at 30 mg/kg (Rattus norvegicus [1]): 17.4%

CCN1CCN(CC(=O)Nc2nc3cc(OC)ccc3s2)CC1
inhibition in vivo at 30 mg/kg (Rattus norvegicus [1]): 17.4%

CS(=O)(=O)c1ccc(C2=C(c3ccccc3)C(=O)OC2)cc1 [ROFECOXIB]
inhibition in vivo at 30 mg/kg (Rattus norvegicus [1]): 81%

O=C(CN1CCCNCC1)Nc1nc2ccccc2s1
inhibition in vivo at 30 mg/kg (Rattus norvegicus [1]): 8.6%

COc1ccc2cc([C@H](C)C(=O)O)ccc2c1 [NAPROXEN]
inhibition in vivo at 30 mg/kg (Rattus norvegicus [1]): 71.7%
UI (Rattus norvegicus [2]): 2.5
UI (Rattus norvegicus [3]): 2.5

COc1ccc2sc(NC(=O)CN3CCN(c4ccccc4)CC3)nc2c1
inhibition in vivo at 30 mg/kg (Rattus norvegicus [1]): 21.7%

O=C(CN1CCNCC1)Nc1nc2ccccc2s1
inhibition in vivo at 30 mg/kg (Rattus norvegicus [1]): 41.3%
UI (Rattus norvegicus [2]): 1.24
UI (Rattus norvegicus [3]): 1.24

O=C(CN1CCNCC1)Nc1nc2cc([N+](=O)[O-])ccc2s1
inhibition in vivo at 30 mg/kg (Rattus norvegicus [1]): 12.3%

CCN1CCN(CC(=O)Nc2nc3cc([N+](=O)[O-])ccc3s2)CC1
inhibition in vivo at 30 mg/kg (Rattus norvegicus [1]): 17.4%

O=C(CN1CCN(c2ccccc2)CC1)Nc1nc2ccccc2s1
inhibition in vivo at 30 mg/kg (Rattus norvegicus [1]): 23.9%

O=C(CN1CCN(c2ccccc2)CC1)Nc1nc2cc([N+](=O)[O-])ccc2s1
inhibition in vivo at 30 mg/kg (Rattus norvegicus [1]): 34.8%
UI (Rattus norvegicus [2]): 1.21
UI (Rattus norvegicus [3]): 1.21

O=C(CN1CCCNCC1)Nc1nc2cc([N+](=O)[O-])ccc2s1
inhibition in vivo at 30 mg/kg (Rattus norvegicus [1]): 17.4%
